Series [1] relates to Aspergillus fumigatus IAM 2034. In words: In vitro antifungal activity (MIC), agar dilution method, 11-xylosyl precursors. Type of series: cell-based. To be noted: 10^6 cells/ml, 28°C, 40 hrs. On the procedure:
(§1) The in vitro antifungal activities of pradimicins T1 and T2 and 11-0-dexylosylpradimicin T1 were determined by the agar dilution method on yeast morphology agar containing 1/15M phosphate buffer (pH 7.0).
On the technique in general: In agar dilution the substance is mixed into plates at graded concentrations.

Series [2] concerns Candida albicans 83-2-14 (Juntendo). The description is as above. Type of series: cell-based. To be noted: yeast morphology agar + 1/15M phosphate buffer (pH 7.0), 10^6 cells/ml, 28°C, 40 hrs. The procedure: as §1
Series [3] has as its system Candida albicans A9540. The description is as above. Type of series: cell-based. To be noted: yeast morphology agar + 1/15M phosphate buffer (pH 7.0), 10^6 cells/ml, 28°C, 40 hrs. The procedure:
as §1

Series [4] deals with Candida albicans ATCC 32354 (B311). The description is as above. The following applies: 10^6 cells/ml, 28°C, 40 hrs. Type of series: cell-based. The procedure:
as §1

In series [5] the test system is Candida albicans ATCC 38247. The series is described as above. The format is cell-based. To be noted: 10^6 cells/ml, 28°C, 40 hrs. On the procedure: as §1
Series [6] deals with Candida tropicalis 85-8 (Kitasato). The description is as above. Type of series: cell-based. The following applies: yeast morphology agar + 1/15M phosphate buffer (pH 7.0), 10^6 cells/ml, 28°C, 40 hrs. The procedure: as §1
Series [7] relates to Candida tropicalis IFO 10241. The description is as above. The format is cell-based. The following applies: 10^6 cells/ml, 28°C, 40 hrs. On the procedure:
as §1

Series [8] has as its system Cryptococcus neoformans D49. The series is described as above. The following applies: yeast morphology agar + 1/15M phosphate buffer (pH 7.0), 10^6 cells/ml, 28°C, 40 hrs. The format is cell-based. On the procedure: as §1
The subject of series [9] is Cryptococcus neoformans IAM 4514. The description is as above. The format is cell-based. To be noted: 10^6 cells/ml, 28°C, 40 hrs. The procedure:
as §1

Series [10] relates to Saccharomyces cerevisiae ATCC 9763. Described as above. Type of series: cell-based. To be noted: 10^6 cells/ml, 28°C, 40 hrs. On the procedure:
as §1

In series [11] the test system is Trichophyton mentagrophytes 4329. The series is described as above. Type of series: cell-based. To be noted: yeast morphology agar + 1/15M phosphate buffer (pH 7.0), 10^7 cells/ml, 28°C, 60 hrs. On the procedure: as §1
The subject of series [12] is Candida albicans A9540 systemic infection. In words: In vivo efficacy against systemic infection in mice. Further details: species or system male ICR mice. The following applies: for ED50: Candida albicans, iv, 480 h, read-out: PD50; for PD50: C. albicans A9540 systemic infection, male ICR mice, single intravenous dose immediately after challenge, survival rate 20 days after infection. The procedure: (§2) Pradimicins T1 and T2 were evaluated for in vivo efficacy against a Candida albicans A9540 systemic infection in male ICR mice (20-24 g body weight) as described by Oki et al. in "Water-soluble pradimicin derivatives, synthesis and antifungal evaluation of N,N,-dimethyl pradimicins", J. Antibiotics 43:1230-1235, 1990. Five mice at each dose level were challenged intravenously with ten times the 50% lethal dose of the pathogen suspended in saline. Antibiotics were intravenously administered once immediately after the fungal challenge. Infection control animals (n=10) died from 7 to 12 days. The 50% protective dose (PD₅₀) was calculated from the survival rate 20 days after the fungal infection. The acute toxicity of pradimicins T1 and T2 was determined in mice after a single intravenous dose.

Series [13] in a line: Acute toxicity in mice after a single intravenous dose. Type of series: in vivo. The procedure:
as §2

In series [14] the test system is Candida albicans A9540. The experiment in a line: In vitro antifungal activity (MIC), agar dilution on yeast morphology agar. The format is cell-based. To be noted: YMA, 0.06M phosphate (pH 7.0), 28°C, 40 hours, read-out: MIC Ca-4. The procedure: (§3) The in vitro antifungal activity (MIC) of the compounds of the invention was determined on yeast morphology agar (YMA, Difco Laboratories, USA), buffered with 0.06M phosphate (pH 7.0). Nine parts of molten agar were combined with one part of antibiotic dilution in petri dishes. A 5-µl suspension containing 2x10⁶ cells/ml was spotted on the surface of the agar plates. The plates were incubated at 28°C and MICs were recorded after 40 hours of the incubation. All of the 11-hydroxy derivatives of Formula I-I are active against a wide range of fungi.

Series [15] concerns Candida tropicalis IFO10241. The series is described as above. Type of series: cell-based. To be noted: YMA, 0.06M phosphate (pH 7.0), 28°C, 40 hours, read-out: MIC Ct-12. On the procedure: as §3
Series [16] deals with Cryptococcus neoformans IAM4514. The description is as above. The format is cell-based. The following applies: YMA, 0.06M phosphate (pH 7.0), 28°C, 40 hours, read-out: MIC Cn-2. On the procedure: as §3
Setting [17] is: IAM2034, yeast morphology agar + 1/15M phosphate buffer (pH 7.0), read-out: MIC.
Where [18] appears, read: ATCC32354, yeast morphology agar + 1/15M phosphate buffer (pH 7.0), read-out: MIC.
The mark [19] stands for this setting: ATCC38247, yeast morphology agar + 1/15M phosphate buffer (pH 7.0), read-out: MIC.
Where [20] appears, read: IFO10241, yeast morphology agar + 1/15M phosphate buffer (pH 7.0), read-out: MIC.
The mark [21] stands for this setting: IAM4514, yeast morphology agar + 1/15M phosphate buffer (pH 7.0), read-out: MIC.
The mark [22] stands for this setting: ATCC9763, yeast morphology agar + 1/15M phosphate buffer (pH 7.0), read-out: MIC.
Setting [23] is: yeast morphology agar + 1/15M phosphate buffer (pH 7.0).

≈ marks a conversion by molar mass, not a printed value. Where two headings read alike, the source gives them in different places.

`Cc1cc2c(c(O)c1C(=O)NCC(=O)O)-c1c(cc3c(c1O)C(=O)c1cc(O)cc(O)c1C3=O)[C@H](O)[C@H]2O[C@@H]1O[C@H](C)[C@H](O)[C@H](O[C@@H]2OC[C@@H](O)[C@H](O)[C@H]2O)[C@H]1O` [11-O-Dexylosyl-pradimicin T1]: the MIC came to 25 µg/mL in [1] (setting [17]); 3.1 µg/mL in series [2] (read-out: MIC); 6.3 µg/mL with Candida albicans A9540 [3] (read-out: MIC); 3.1 µg/mL in series [4] (setting [18]); 3.1 µg/mL in [5] (setting [19]); 12.5 µg/mL in series [6] (read-out: MIC). Further, the MIC in [7] (setting [20]) is 12.5 µg/mL; in series [8] (read-out: MIC), 6.3 µg/mL; in [9] (setting [21]) it was 6.3 µg/mL; in [10] (setting [22]) it was 3.1 µg/mL; in series [11] (read-out: MIC), 12.5 µg/mL.
Usually LD50 stands for the dose expected to kill half of the subjects tested. On to `C[C@@H]1[C@H](O)[C@@H](C)/C=C/C=C/C=C/C=C/C=C/C=C/C=C/[C@H](O[C@@H]2O[C@H](C)[C@@H](O)[C@H](N)[C@@H]2O)C[C@@H]2O[C@](O)(C[C@@H](O)C[C@@H](O)[C@H](O)CC[C@@H](O)C[C@@H](O)CC(=O)O[C@H]1C)C[C@H](O)[C@H]2C(=O)O` [Amphotericin B, reference compound], for which the ED50 in series [12] is 0.2 mg/kg. The LD50 in series [13] (mouse, in vivo, read-out: LD50) came to 4.5 mg/kg.
On to `Cc1cc2c(c(O)c1C(=O)NCC(=O)O)-c1c(cc3c(c1O)C(=O)c1cc(C(N)=O)cc(O)c1C3=O)[C@H](O)[C@H]2O[C@@H]1O[C@H](C)[C@H](O)[C@H](O[C@@H]2OC[C@@H](O)[C@H](O)[C@H]2O)[C@H]1O` [IIK, 11-Carbamoyl-11-dexylosyloxy pradimicin T1], for which the MIC in the series on Candida albicans A9540 [14] is 12.5 µg/mL (≈ 15.1 µM); in [15], 25 µg/mL (≈ 30.2 µM); in series [16], 6.3 µg/mL (≈ 7.62 µM).
Regarding `Cc1cc2c(c(O)c1C(=O)NCC(=O)O)-c1c(cc3c(c1O)C(=O)c1cc(C#N)cc(O)c1C3=O)[C@H](O)[C@H]2O[C@@H]1O[C@H](C)[C@H](O)[C@H](O[C@@H]2OC[C@@H](O)[C@H](O)[C@H]2O)[C@H]1O` [IIL, 11-Cyano-11-dexylosyloxy pradimicin T1], the MIC in the series on Candida albicans A9540 [14] amounted to 12.5 µg/mL (≈ 15.5 µM); in series [15] it was 25 µg/mL (≈ 30.9 µM); in series [16], 6.3 µg/mL (≈ 7.79 µM).
Take `CC(=O)N1CCN(c2ccc(OCC3COC(Cn4ccnc4)(c4ccc(Cl)cc4Cl)O3)cc2)CC1` (centres unmarked) [Ketoconazole, reference compound]: the MIC in series [1] (setting [17]) was found to be 3.1 µg/mL; in the series with Candida albicans A9540 [3] (read-out: MIC), 50 µg/mL; in [4] (setting [18]), 50 µg/mL; in series [5] (setting [19]), 25 µg/mL; in [6] (read-out: MIC), 100 µg/mL; in series [7] (setting [20]) it was 50 µg/mL. The MIC worked out at 0.8 µg/mL in series [8] (read-out: MIC), 0.4 µg/mL in series [9] (setting [21]), 50 µg/mL in [10] (setting [22]) and 0.8 µg/mL in [11] (read-out: MIC). For the same molecule, in series [12], the ED50 is greater than 50 mg/kg.
As to `CN[C@@H]1[C@H](O[C@@H]2OC[C@@H](O)[C@H](O)[C@H]2O)[C@@H](O)[C@H](O[C@H]2c3cc(C)c(C(=O)N[C@H](C)C(=O)O)c(O)c3-c3c(cc4c(c3O)C(=O)c3cc(OC)cc(O)c3C4=O)[C@@H]2O)O[C@@H]1C` [Pradimicin A, reference compound], the MIC was 6.3 µg/mL (≈ 7.49 µM) in the series with Candida albicans A9540 [14], 12.5 µg/mL (≈ 14.9 µM) in series [15] and 1.6 µg/mL (≈ 1.9 µM) in series [16].
For the molecule Pradimicin T1, the MIC in series [1] (setting [23]) amounted to 6.3 µg/mL; in series [2], 6.3 µg/mL; in the series on Candida albicans A9540 [3] it was 6.3 µg/mL; in [4] (setting [23]) it was 6.3 µg/mL; in series [5] (setting [23]), 1.6 µg/mL; in series [6] it was 25 µg/mL. In addition, the MIC in series [7] (setting [23]) stood at 12.5 µg/mL; in series [8], 3.1 µg/mL; in series [9] (setting [23]), 3.1 µg/mL; in [10] (setting [23]) it was 3.1 µg/mL; in series [11] it was 6.3 µg/mL. Also, the PD50 in series [12] is 27 mg/kg. The LD50 in [13] is 300 mg/kg.
For Pradimicin T2, the MIC in series [1] (setting [23]) was greater than 100 µg/mL; in [2], 3.1 µg/mL; in the series with Candida albicans A9540 [3], 3.1 µg/mL; in series [4] (setting [23]), 3.1 µg/mL; in series [5] (setting [23]) it was 1.6 µg/mL; in series [6] it was 6.3 µg/mL. Moreover, the MIC in series [7] (setting [23]) was 6.3 µg/mL; in series [8] it was 6.3 µg/mL; in series [9] (setting [23]), 6.3 µg/mL; in [10] (setting [23]) it was 0.8 µg/mL; in series [11], 50 µg/mL. The molecule further registered a PD50 in series [12] greater than 50 mg/kg. The LD50 in [13] is greater than 600 mg/kg.
